Data on 24 compounds can be found in US20260297080A1, “BICYCLIC COMPOUNDS AS CDK INHIBITORS” (BeOne Medicines I GmbH, priority 2022, published 2026).

Molecules are shown by their SMILES. pIC50: −log10 of the molar value.

Test [1] addresses CDK2/Cyclin E1 (Homo sapiens, UniProt P24941). Description: CDK2/Cyclin E1 Biochemical Assay (TR-FRET), 0.060 mM ATP. To be noted: 0.15 μM Rb (Ser780)-biotin substrate, pH7.0, 60 min preincubation, 120 min reaction, room temperature. The method in brief: (§1)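 Enzyme + cpd (0–10 μM), 60 min RT; add ATP + 0.15 μM Rb(Ser780)-biotin, 120 min RT; 50 mM HEPES pH 7.0, 50 mM MgCl2, 1 mM DTT, 0.1 mM orthovanadate. Stop/detect with Eu anti-pRb + SA-XL665, 60 min; ratio 665/620 nm; IC50 by 4PL fit.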
In general terms: Time-resolved FRET reads energy transfer from a long-lived donor to a nearby acceptor.

In test [2] the target is CDK1/Cyclin B1 (Homo sapiens, UniProt P06493). Description: CDK1/Cyclin B1 Biochemical Assay (TR-FRET), 0.015 mM ATP. To be noted: 0.15 μM Rb (Ser780)-biotin substrate, pH7.0, 60 min preincubation, 120 min reaction, room temperature. The method in brief:
as §1

Chain of CDK1/Cyclin B1 (P06493 whole entry): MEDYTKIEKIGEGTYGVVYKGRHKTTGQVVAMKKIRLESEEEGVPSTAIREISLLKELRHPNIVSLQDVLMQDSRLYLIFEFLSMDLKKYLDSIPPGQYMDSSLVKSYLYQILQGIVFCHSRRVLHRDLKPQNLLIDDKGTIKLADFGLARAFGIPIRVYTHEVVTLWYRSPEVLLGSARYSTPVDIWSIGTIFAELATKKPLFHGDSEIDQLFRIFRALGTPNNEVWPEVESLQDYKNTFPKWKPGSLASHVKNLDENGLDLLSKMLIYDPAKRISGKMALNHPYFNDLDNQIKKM
Chain of CDK1/Cyclin B1 (P14635 whole entry partner): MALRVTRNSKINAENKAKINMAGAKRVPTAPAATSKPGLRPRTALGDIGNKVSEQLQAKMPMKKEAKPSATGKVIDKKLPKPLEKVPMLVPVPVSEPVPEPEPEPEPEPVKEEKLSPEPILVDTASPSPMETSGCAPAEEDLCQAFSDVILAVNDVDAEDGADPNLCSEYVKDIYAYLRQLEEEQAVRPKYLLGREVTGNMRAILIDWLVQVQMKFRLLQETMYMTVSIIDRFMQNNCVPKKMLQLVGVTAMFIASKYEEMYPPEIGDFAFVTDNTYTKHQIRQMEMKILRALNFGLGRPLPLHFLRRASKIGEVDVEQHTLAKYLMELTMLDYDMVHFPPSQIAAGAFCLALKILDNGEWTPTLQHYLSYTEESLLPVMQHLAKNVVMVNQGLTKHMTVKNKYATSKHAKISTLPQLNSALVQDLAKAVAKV

`CC(C)NC(=O)O[C@H]1CC[C@@H](c2cc(Nc3ccc4c(c3F)CN(CC3COC3)S4(=O)=O)n[nH]2)C1` (relative stereo) [Example 97, cis-3-(3-((4-fluoro-2-(oxetan-3-ylmethyl)-1,1-dioxido-2,3-dihydrobenzo[d]isothiazol-5-yl)amino)-1H-pyrazol-5-yl)cyclopentyl isopropylcarbamate]: the negative-log IC50 (pIC50) is 8.28 in test [1] and 6.35 in test [2].
In the case of `CC(C)NC(=O)O[C@H]1CC[C@@H](c2cc(Nc3ccc4c(c3)CS(=O)(=O)N4C3CC3)n[nH]2)C1` (relative stereo) [Example 203, cis-3-(3-((1-cyclopropyl-2,2-dioxido-1,3-dihydrobenzo[c]isothiazol-5-yl)amino)-1H-pyrazol-5-yl)cyclopentyl isopropylcarbamate], the pIC50 in test [1] is 8.27; in test [2], 7.39.
For `CC(C)(C)NC(=O)O[C@@H]1CC[C@H](c2cc(Nc3cc4c(cc3F)NS(=O)(=O)C4)n[nH]2)C1` [Example 404a], the values for the pIC50 in test [1] and in test [2] were 7.74 and 6.14, respectively.
Take `CC(C)NC(=O)O[C@H]1CC[C@@H](c2cc(Nc3ccc4c(c3F)CS(=O)(=O)N4CCCO)n[nH]2)C1` (relative stereo) [Example 389, cis-3-(3-((4-fluoro-1-(3-hydroxypropyl)-2,2-dioxido-1,3-dihydrobenzo[c]isothiazol-5-yl)amino)-1H-pyrazol-5-yl)cyclopentyl isopropylcarbamate]: the figures for the pIC50 in test [1] and in test [2] were 8.89 and 7.13, respectively.
As to `CC(C)(C)NC(=O)O[C@H]1CC[C@@H](c2cc(Nc3ccc4c(c3F)CNS4(=O)=O)n[nH]2)C1` (relative stereo) [Example 159, cis-3-(3-((4-fluoro-1,1-dioxido-2,3-dihydrobenzo[d]isothiazol-5-yl)amino)-1H-pyrazol-5-yl)cyclopentyl tert-butylcarbamate], the pIC50 is 9.00 in test [1] and 7.52 in test [2].
With `O=C(NCCC(F)(F)F)O[C@@H]1CC[C@H](c2cc(Nc3cc4c(cc3F)S(=O)(=O)NC4)n[nH]2)C1` (single isomer, unassigned) [Example 419a], the values for the negative logarithm of the IC50 (pIC50) in test [1] and in test [2] were 8.70 and 6.53, respectively.
For `CC(C)NC(=O)O[C@H]1CC[C@@H](c2cc(Nc3ccc4c(c3F)CS(=O)(=O)N4CCO)n[nH]2)C1` (single isomer, unassigned) [Example 271b, cis-3-(3-((4-fluoro-1-(2-hydroxyethyl)-2,2-dioxido-1,3-dihydrobenzo[c]isothiazol-5-yl)amino)-1H-pyrazol-5-yl)cyclopentyl isopropylcarbamate], the pIC50 was 8.74 in test [1] and 7.31 in test [2].
Taken in the same sequence, the figures for `CC1(C)CCN1C(=O)O[C@H]1CC[C@@H](c2cc(Nc3ccc4c(c3F)CNS4(=O)=O)n[nH]2)C1` (relative stereo) [Example 155, cis-3-(3-((4-fluoro-1,1-dioxido-2,3-dihydrobenzo[d]isothiazol-5-yl)amino)-1H-pyrazol-5-yl)cyclopentyl 2,2-dimethylazetidine-1-carboxylate] were 8.89 and 7.89.
As for `CC(C)NC(=O)O[C@H]1CC[C@@H](c2cc(Nc3ccc4c(c3F)CN(C3CCCC3)S4(=O)=O)n[nH]2)C1` (relative stereo) [Example 68, cis-3-(3-((2-cyclopentyl-4-fluoro-1,1-dioxido-2,3-dihydrobenzo[d]isothiazol-5-yl)amino-1H-pyrazol-5-yl)cyclopentyl isopropylcarbamate], the pIC50 in test [1] is 7.82; in test [2], 5.93.
Taken in the same sequence, the figures for `CC(C)NC(=O)O[C@H]1CC[C@@H](c2cc(Nc3ccc4c(c3F)CS(=O)(=O)N4)n[nH]2)C1` (racemic) [Example 251, cis-3-(3-((4-fluoro-2,2-dioxido-1,3-dihydrobenzo[c]isothiazol-5-yl)amino)-1H-pyrazol-5-yl)cyclopentyl isopropylcarbamate] were 9.40 and 7.60.
Regarding `O=C(NC1CCC(O)CC1)O[C@H]1CC[C@@H](c2cc(Nc3ccc4c(c3F)CNS4(=O)=O)n[nH]2)C1` (single isomer, unassigned) [Example 142, cis-3-(3-((4-fluoro-1,1-dioxido-2,3-dihydrobenzo[d]isothiazol-5-yl)amino)-1H-pyrazol-5-yl)cyclopentyl(4-hydroxycyclohexyl)carbamate], the results for the negative-log IC50 (pIC50) in test [1] and in test [2] were 8.92 and 7.34, respectively.
For `CC(C)NC(=O)O[C@H]1CC[C@@H](c2cc(Nc3ccc4c(c3)CS(=O)(=O)N4C)n[nH]2)C1` (single isomer, unassigned) [Example 220b], the pIC50 was 8.59 in test [1] and 7.46 in test [2].
Regarding `CCCNC(=O)O[C@H]1CC[C@@H](c2cc(Nc3ccc4c(c3F)C(C)NS4(=O)=O)n[nH]2)C1` (single isomer, unassigned) [Example 53c, cis-3-(3-((4-fluoro-3-methyl-1,1-dioxido-2,3-dihydrobenzo[d]isothiazol-5-yl)amino)-1H-pyrazol-5-yl)cyclopentyl propylcarbamate], the pIC50 in test [1] was 7.82; in test [2], 6.16.
On the same counts, the results for `O=C(NC1(CO)CCC1)O[C@H]1CC[C@@H](c2cc(Nc3cc4c(cc3F)NS(=O)(=O)C4)n[nH]2)C1` (relative stereo) [Example 408, cis-3-(3-((6-fluoro-2,2-dioxido-1,3-dihydrobenzo[c]isothiazol-5-yl)amino)-1H-pyrazol-5-yl)cyclopentyl(1-(hydroxymethyl)cyclobutyl)carbamate] are 7.46 and 5.96.
Consider `CC(C)NC(=O)O[C@H]1CC[C@@H](c2cc(Nc3ccc4c(c3)CCNS4(=O)=O)n[nH]2)C1` (relative stereo) [Example 172, cis-3-(3-((1,1-dioxido-3,4-dihydro-2H-benzo[e][1,2]thiazin-6-yl)amino)-1H-pyrazol-5-yl)cyclopentyl isopropylcarbamate], for which the pIC50 was 9.15 in test [1] and 7.85 in test [2].
Taken in the same sequence, the figures for `CN1c2ccc(Nc3cc([C@@H]4CC[C@H](OC(=O)NC5CCC5)C4)[nH]n3)cc2CS1(=O)=O` (single isomer, unassigned) [Example 227a, cis-3-(3-((1-methyl-2,2-dioxido-1,3-dihydrobenzo[c]isothiazol-5-yl)amino)-1H-pyrazol-5-yl)cyclopentyl cyclobutylcarbamate] were 8.46 and 6.81.
Take `CC(NC(=O)O[C@H]1CC[C@@H](c2cc(Nc3ccc4c(c3F)CNS4(=O)=O)n[nH]2)C1)C1CC1` (relative stereo) [Example 156, cis-3-(3-((4-fluoro-1,1-dioxido-2,3-dihydrobenzo[d]isothiazol-5-yl)amino)-1H-pyrazol-5-yl)cyclopentyl(1-cyclopropylethyl)carbamate]: the pIC50 in test [1] is 8.77; in test [2] it was 7.12.
As for `CN1Cc2c(ccc(Nc3cc([C@@H]4CC[C@H](OC(=O)NC5(C)CCOC5)C4)[nH]n3)c2F)S1(=O)=O` (relative stereo) [Example 335, cis-3-(3-((4-fluoro-2-methyl-1,1-dioxido-2,3-dihydrobenzo[d]isothiazol-5-yl)amino)-1H-pyrazol-5-yl)cyclopentyl(3-methyltetrahydrofuran-3-yl)carbamate], the results for the pIC50 in test [1] and in test [2] were 8.29 and 6.45, respectively.
On the same counts, the results for `O=C(NC12CC(C1)C2)O[C@H]1CC[C@@H](c2cc(Nc3ccc4c(c3F)CNS4(=O)=O)n[nH]2)C1` (relative stereo) [Example 150, cis-3-(3-((4-fluoro-1,1-dioxido-2,3-dihydrobenzo[d]isothiazol-5-yl)amino)-1H-pyrazol-5-yl)cyclopentyl bicyclo[1.1.1]pentan-1-ylcarbamate] are 9.52 and 7.62.
For the compound `CC[C@H](C)NC(=O)O[C@H]1CC[C@@H](c2cc(Nc3ccc4c(c3F)CS(=O)(=O)N4C3COC3)n[nH]2)C1` (single isomer, unassigned) [Example 261b], the negative-log IC50 (pIC50) in test [1] is 9.15; in test [2] it was 7.64.
As for `CC[C@H](C)NC(=O)O[C@H]1CC[C@@H](c2cc(Nc3ccc4c(c3)CS(=O)(=O)N4C)n[nH]2)C1` (relative stereo) [Example 222, cis-3-(3-((1-methyl-2,2-dioxido-1,3-dihydrobenzo[c]isothiazol-5-yl)amino)-1H-pyrazol-5-yl)cyclopentyl((S)-sec-butyl)carbamate], the figures for the pIC50 in test [1] and in test [2] were 8.30 and 7.32, respectively.
For `CCCNC(=O)O[C@H]1CC[C@@H](c2cc(Nc3ccc4c(c3F)CN(CCO)S4(=O)=O)n[nH]2)C1` (relative stereo) [Example 126, cis-3-(3-((4-fluoro-2-(2-hydroxyethyl)-1,1-dioxido-2,3-dihydrobenzo[d]isothiazol-5-yl)amino)-1H-pyrazol-5-yl)cyclopentyl propylcarbamate], the negative logarithm of the IC50 (pIC50) in test [1] is 8.08; in test [2], 6.58.
Take `CC[C@H](C)NC(=O)O[C@H]1CC[C@@H](c2cc(Nc3ccc4c(c3F)CN(CCO)S4(=O)=O)n[nH]2)C1` (relative stereo) [Example 127, cis-3-(3-((4-fluoro-2-(2-hydroxyethyl)-1,1-dioxido-2,3-dihydrobenzo[d]isothiazol-5-yl)amino)-1H-pyrazol-5-yl)cyclopentyl((S)-sec-butyl)carbamate]: the pIC50 is 8.72 in test [1] and 6.75 in test [2].
As to `COCC(C)(C)NC(=O)O[C@H]1CC[C@@H](c2cc(Nc3ccc4c(c3)CS(=O)(=O)N4)n[nH]2)C1` (relative stereo) [Example 370, cis-3-(3-((2,2-dioxido-1,3-dihydrobenzo[c]isothiazol-5-yl)amino)-1H-pyrazol-5-yl)cyclopentyl(1-methoxy-2-methylpropan-2-yl)carbamate], the pIC50 in test [1] is 8.96; in test [2], 8.01.

Usually pIC50 stands for −log10 of the IC50, conventionally taken in molar units. Low readings indicate a high IC50, high ones a low IC50.
